According to ChEMBL document CHEMBL5247597, “Enantioselective semisynthesis of novel cephalotaxine esters with potent antineoplastic activities against leukemia” (Eur J Med Chem, 2022):
Calls of active or inactive are those of the source. The calls are words filed in the database; no cut-off is given here.

Legend:
U-937 = assay: Antiproliferative activity against human U-937 cells assessed as inhibition of cell growth measured after 72 hrs by CCK8 assay; type: functional, cell-based; details: U-937, 72 h
HL-60 = assay: Antiproliferative activity against human HL-60 cells assessed as inhibition of cell growth measured after 72 hrs by CCK8 assay; type: functional, cell-based; details: HL-60, 72 h
K562 [1] = assay: Antiproliferative activity against human K562 cells assessed as inhibition of cell growth measured after 72 hrs by CCK8 assay; type: functional, cell-based; details: K562, 72 h
BaF3 = assay: Antiproliferative activity against mouse BaF3 cells expressing Bcr/Abl-T315I mutant assessed as inhibition of cell growth measured after 72 hrs by CCK8 assay; type: functional, cell-based; details: BaF3, 72 h
OCI-Ly3 = assay: Antiproliferative activity against human OCILY3 cells assessed as inhibition of cell growth measured after 72 hrs by CCK8 assay; type: functional, cell-based; details: OCI-Ly3, 72 h
A204 = assay: Antiproliferative activity against human A204 cells assessed as inhibition of cell growth measured after 72 hrs by CCK8 assay; type: functional, cell-based; details: A204, 72 h
MOLT-4 = assay: Antiproliferative activity against human MOLT-4 cells assessed as inhibition of cell growth measured after 72 hrs by CCK8 assay; type: functional, cell-based; details: MOLT-4, 72 h
NCI-H1975 = assay: Antiproliferative activity against human NCI-H1975 cells assessed as inhibition of cell growth measured after 72 hrs by CCK8 assay; type: functional, cell-based; details: NCI-H1975, 72 h
MV4-11 = assay: Antiproliferative activity against human MV4-11 cells assessed as inhibition of cell growth measured after 72 hrs by CCK8 assay; type: functional, cell-based; details: MV4-11, 72 h
NCI-H1299 = assay: Antiproliferative activity against human NCI-H1299 cells assessed as inhibition of cell growth measured after 72 hrs by CCK8 assay; type: functional, cell-based; details: NCI-H1299, 72 h
4T1 = assay: Antiproliferative activity against mouse 4T1 cells assessed as inhibition of cell growth measured after 72 hrs by CCK8 assay; type: functional, cell-based; details: 4T1, 72 h
HCT-116 = assay: Antiproliferative activity against human HCT-116 cells assessed as inhibition of cell growth measured after 72 hrs by CCK8 assay; type: functional, cell-based; details: HCT-116, 72 h
[2] = Cytotoxicity against human HL7702 cells assessed as inhibition of cell growth measured after 72 hrs by CCK8 assay; type: toxicity, cell-based; details: HL7702 (L02) cells
NCI-H716 = assay: Antiproliferative activity against human NCI-H716 cells assessed as inhibition of cell growth measured after 72 hrs by CCK8 assay; type: functional, cell-based; details: NCI-H716, 72 h
MDA-MB-453 = assay: Antiproliferative activity against human MDA-MB-453 cells assessed as inhibition of cell growth measured after 72 hrs by CCK8 assay; type: functional, cell-based; details: MDA-MB-453, 72 h
Huh-7 = assay: Antiproliferative activity against human Huh-7 cells assessed as inhibition of cell growth measured after 72 hrs by CCK8 assay; type: functional, cell-based; details: Huh-7, 72 h
K562 [3] = assay: Downregulation of Mcl-1 expression in human K562 cells incubated for 24 hrs by Western blotting analysis; type: functional, cell-based; details: dose 11.1-900 nM
K562 [4] = assay: Downregulation of HSP90 expression in human K562 cells at 11.1 to 900 nM incubated for 24 hrs by Western blotting analysis; type: functional, cell-based; details: dose 11.1-900 nM
K562 [5] = assay: Downregulation of Bcr-Abl expression in human K562 cells incubated for 24 hrs by Western blotting analysis; type: functional, cell-based; details: dose 11.1-900 nM
K562 [6] = assay: Downregulation of p38 expression in human K562 cells at 11.1 to 900 nM incubated for 24 hrs by Western blotting analysis; type: functional, cell-based; details: dose 11.1-900 nM
K562 [7] = assay: Downregulation of Myc expression in human K562 cells incubated for 24 hrs by Western blotting analysis; type: functional, cell-based; details: dose 11.1-900 nM

| Structure (SMILES) | IC50 (U-937) [nM] | IC50 (HL-60) [nM] | IC50 (K562 [1]) [nM] | also measured |
| --- | --- | --- | --- | --- |
| COC(=O)C[C@H](Cc1cccc(NC(=O)OC(C)(C)C)c1)C(=O)O[C@@H]1C(OC)=C[C@]23CCCN2CCc2cc4c(cc2[C@H]13)OCO4 | 257 | 199 | 163 | – |
| COC(=O)C[C@H](Cc1ccc(OC(C)=O)cc1)C(=O)O[C@@H]1C(OC)=C[C@]23CCCN2CCc2cc4c(cc2[C@H]13)OCO4 | 204 | 142 | 121 | – |
| CCOC(=O)C[C@H](Cc1ccc(OCc2ccccc2)cc1)C(=O)O[C@@H]1C(OC)=C[C@]23CCCN2CCc2cc4c(cc2[C@H]13)OCO4 | 1050 | 890 | 693 | – |
| COC(=O)C[C@H](Cc1ccc(Br)cc1)C(=O)O[C@@H]1C(OC)=C[C@]23CCCN2CCc2cc4c(cc2[C@H]13)OCO4 | 929 | 701 | 553 | – |
| COC(=O)C[C@](O)(CCCC(C)(C)O)C(=O)O[C@@H]1C(OC)=C[C@]23CCCN2CCc2cc4c(cc2[C@H]13)OCO4 [OMACETAXINE MEPESUCCINATE] | 12 | 13 | 14 | IC50 (BaF3): 81 nM; IC50 (OCI-Ly3): 5 nM; IC50 (A204): 4 nM; IC50 (MOLT-4): 7 nM; IC50 (NCI-H1975): 22 nM; IC50 (MV4-11): 5 nM; IC50 (NCI-H1299): 22 nM; IC50 (4T1): 60 nM; IC50 (HCT-116): 13 nM; IC50 at 72 h [2]: 64 nM; IC50 (NCI-H716): 65 nM; IC50 (MDA-MB-453): 21 nM; IC50 (Huh-7): 40 nM |
| COC(=O)C[C@H](Cc1ccc2ccccc2c1)C(=O)O[C@@H]1C(OC)=C[C@]23CCCN2CCc2cc4c(cc2[C@H]13)OCO4 | 441 | 396 | 344 | – |
| COC(=O)C[C@H](Cc1ccc(N)cc1)C(=O)O[C@@H]1C(OC)=C[C@]23CCCN2CCc2cc4c(cc2[C@H]13)OCO4 | 121 | 130 | 112 | Activity (K562 [3]): Dose-Dependent Effect; IC50 (BaF3): 246 nM; Activity (K562 [4]): inactive; IC50 (OCI-Ly3): 58 nM; IC50 (A204): 38 nM; IC50 (MOLT-4): 60 nM; IC50 (NCI-H1975): 11900 nM; IC50 (MV4-11): 98 nM; Activity (K562 [5]): Dose-Dependent Effect; Activity (K562 [6]): inactive; IC50 (NCI-H1299): 173 nM; IC50 (4T1): 296 nM; IC50 (HCT-116): 107 nM; IC50 at 72 h [2]: 494 nM; IC50 (NCI-H716): 107 nM; Activity (K562 [7]): Dose-Dependent Effect; IC50 (MDA-MB-453): 70 nM; IC50 (Huh-7): 216 nM |
| COC(=O)C[C@H](Cc1ccc(OCc2ccccc2)cc1)C(=O)O[C@@H]1C(OC)=C[C@]23CCCN2CCc2cc4c(cc2[C@H]13)OCO4 | 174 | 151 | 103 | – |
| Cc1ccc(NC(=O)c2ccc(CN3CCN(C)CC3)cc2)cc1Nc1nccc(-c2cccnc2)n1 [IMATINIB] | 16600 | 28500 | 135 | – |
| COC(=O)C[C@H](Cc1ccc(NC(=O)OC(C)(C)C)cc1)C(=O)O[C@@H]1C(OC)=C[C@]23CCCN2CCc2cc4c(cc2[C@H]13)OCO4 | 130 | 155 | 149 | – |
| COC1=C[C@]23CCCN2CCc2cc4c(cc2[C@@H]3[C@@H]1O)OCO4 [CEPHALOTAXINE] | > 30000 | > 30000 | > 30000 | – |
| COC(=O)C[C@@H](Cc1ccc(F)cc1)C(=O)O[C@@H]1C(OC)=C[C@]23CCCN2CCc2cc4c(cc2[C@H]13)OCO4 | 673 | 597 | 373 | – |
| CCOC(=O)C[C@H](Cc1ccc(O)cc1)C(=O)O[C@@H]1C(OC)=C[C@]23CCCN2CCc2cc4c(cc2[C@H]13)OCO4 | 834 | 576 | 572 | – |
| COC(=O)C[C@H](C)C(=O)O[C@@H]1C(OC)=C[C@]23CCCN2CCc2cc4c(cc2[C@H]13)OCO4 | 13800 | 18000 | 14500 | – |
| COC(=O)C[C@H](Cc1cccc(OCc2ccccc2)c1)C(=O)O[C@@H]1C(OC)=C[C@]23CCCN2CCc2cc4c(cc2[C@H]13)OCO4 | 248 | 202 | 152 | – |
| COC(=O)C[C@H](CCC(C)(C)C)C(=O)O[C@@H]1C(OC)=C[C@]23CCCN2CCc2cc4c(cc2[C@H]13)OCO4 | 1220 | 907 | 368 | – |
| Cc1nc(Nc2ncc(C(=O)Nc3c(C)cccc3Cl)s2)cc(N2CCN(CCO)CC2)n1 [DASATINIB] | 15000 | 15000 | 1 | – |
| COC(=O)C[C@H](Cc1ccccc1OCc1ccccc1)C(=O)O[C@@H]1C(OC)=C[C@]23CCCN2CCc2cc4c(cc2[C@H]13)OCO4 | 725 | 569 | 482 | – |

Continued, in another order:

| IC50 (U-937) [nM] | IC50 (HL-60) [nM] | IC50 (K562 [1]) [nM] | Structure (SMILES) | also measured |
| --- | --- | --- | --- | --- |
| 807 | 718 | 681 | COC(=O)C[C@H](Cc1ccccc1O)C(=O)O[C@@H]1C(OC)=C[C@]23CCCN2CCc2cc4c(cc2[C@H]13)OCO4 | – |
| 214 | 235 | 203 | COC(=O)C[C@H](Cc1cccc(Br)c1)C(=O)O[C@@H]1C(OC)=C[C@]23CCCN2CCc2cc4c(cc2[C@H]13)OCO4 | – |
| 213 | 145 | 121 | COC(=O)C[C@H](Cc1cccc(N)c1)C(=O)O[C@@H]1C(OC)=C[C@]23CCCN2CCc2cc4c(cc2[C@H]13)OCO4 | – |
| 170 | 155 | 96 | COC(=O)C[C@H](Cc1ccccc1)C(=O)O[C@@H]1C(OC)=C[C@]23CCCN2CCc2cc4c(cc2[C@H]13)OCO4 | – |
| 150 | 153 | 96 | COC(=O)C[C@H](Cc1ccc(O)cc1)C(=O)O[C@@H]1C(OC)=C[C@]23CCCN2CCc2cc4c(cc2[C@H]13)OCO4 | – |
| 277 | 246 | 186 | COC(=O)C[C@@H](Cc1cccs1)C(=O)O[C@@H]1C(OC)=C[C@]23CCCN2CCc2cc4c(cc2[C@H]13)OCO4 | – |
| 174 | 122 | 123 | COC(=O)C[C@H](Cc1cccc(F)c1)C(=O)O[C@@H]1C(OC)=C[C@]23CCCN2CCc2cc4c(cc2[C@H]13)OCO4 | – |
| 288 | 266 | 207 | COC(=O)C[C@H](Cc1ccc(F)cc1)C(=O)O[C@@H]1C(OC)=C[C@]23CCCN2CCc2cc4c(cc2[C@H]13)OCO4 | – |
| 700 | 535 | 464 | COC(=O)C[C@H](Cc1ccccc1Br)C(=O)O[C@@H]1C(OC)=C[C@]23CCCN2CCc2cc4c(cc2[C@H]13)OCO4 | – |
| 176 | 184 | 139 | COC(=O)C[C@H](Cc1cccc(O)c1)C(=O)O[C@@H]1C(OC)=C[C@]23CCCN2CCc2cc4c(cc2[C@H]13)OCO4 | – |
| 725 | 548 | 404 | COC(=O)C[C@@H](Cc1ccccc1)C(=O)O[C@@H]1C(OC)=C[C@]23CCCN2CCc2cc4c(cc2[C@H]13)OCO4 | – |
